The test system of data set [1] is Trypanosoma cruzi. Put plainly: Ratio of benznidazol IC50 to compound IC50 for trypomastigote forms of Trypanosoma cruzi Tulahuen C2C4 infected in rat L6 cells assessed as inhibition of growth after 96 hrs by inverted microscopy. Format: functional.
Data set [2] concerns Trypanosoma cruzi. Put plainly: Antiparasitic activity against trypomastigote forms of Trypanosoma cruzi Tulahuen C2C4 infected in rat L6 cells assessed as inhibition of growth after 96 hrs by inverted microscopy. In kind it is functional, organism-based. Conditions: Tulahuen C2C4, L6, 96 h.
Data set [3] relates to Trypanosoma brucei brucei. Put plainly: Ratio of IC50 for bloodstream forms of Trypanosoma brucei brucei Lister 427 clone 221a overexpressing type I nitroreductase in absence of tetracycline to IC50 for bloodstream forms of Trypanosoma brucei brucei Lister 427 clone 221a overexpressing type I nitroreductase in presence of tetracycline. Format: functional.
Data set [4] deals with Sterol 14-alpha demethylase (Trypanosoma cruzi (strain CL Brener), UniProt Q7Z1V1). Put plainly: Binding affinity to Trypanosoma cruzi CYP51.
Sterol 14-alpha demethylase, sequence (Q7Z1V1 whole entry): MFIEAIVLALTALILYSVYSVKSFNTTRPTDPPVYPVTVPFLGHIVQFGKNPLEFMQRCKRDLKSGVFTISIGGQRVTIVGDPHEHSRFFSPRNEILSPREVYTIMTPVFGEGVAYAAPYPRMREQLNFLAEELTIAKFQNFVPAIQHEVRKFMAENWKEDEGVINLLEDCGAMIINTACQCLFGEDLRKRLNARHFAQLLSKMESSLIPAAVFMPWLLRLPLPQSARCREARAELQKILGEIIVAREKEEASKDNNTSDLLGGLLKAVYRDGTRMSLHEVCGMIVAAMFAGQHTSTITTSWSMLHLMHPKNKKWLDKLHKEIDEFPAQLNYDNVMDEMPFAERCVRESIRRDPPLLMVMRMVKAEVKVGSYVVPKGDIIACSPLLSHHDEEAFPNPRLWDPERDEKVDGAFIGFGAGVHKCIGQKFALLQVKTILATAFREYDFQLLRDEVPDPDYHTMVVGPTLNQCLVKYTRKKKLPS
Data set [5] can be described thus: Selectivity index, ratio of IC50 for rat L6 cells to IC50 for bloodstream forms of Trypanosoma brucei rhodesiense STIB 900. In kind it is toxicity, cell-based. Conditions: read-out: Ratio IC50.
Data set [6] is described as follows: Selectivity index, ratio of IC50 for rat L6 cells to IC50 for trypomastigote forms of Trypanosoma cruzi Tulahuen C2C4 infected in rat L6 cells. In kind it is toxicity, cell-based. The following applies: read-out: Ratio IC50.
Data set [7] is described as follows: Selectivity index, ratio of IC50 for rat L6 cells to IC50 for axenic amastigote forms of Leishmania donovani MHOM/ET/67/L82. Format: toxicity, cell-based. The following applies: read-out: Ratio IC50.
For data set [8], the system named is Trypanosoma brucei brucei. Put plainly: Trypanocidal activity against bloodstream forms of Trypanosoma brucei brucei Lister 427 clone 221a overexpressing type I nitroreductase assessed as inhibition of proliferation after 3 days by resazurin assay in presence of tetracycline. Format: functional, organism-based. Conditions: 72 h. A general note: Resazurin is reduced to fluorescent resorufin, in cell work by metabolically active cells.

Data set [9] deals with Trypanosoma brucei brucei. Put plainly: Trypanocidal activity against wild type bloodstream forms of Trypanosoma brucei brucei Lister 427 clone 221a assessed as inhibition of proliferation after 3 days by resazurin assay. In kind it is functional, organism-based. Conditions: 72 h.
The subject of data set [10] is Trypanosoma brucei brucei. Put plainly: Trypanocidal activity against bloodstream forms of Trypanosoma brucei brucei Lister 427 clone 221a overexpressing type I nitroreductase assessed as inhibition of proliferation after 3 days by resazurin assay in absence of tetracycline. The following applies: 72 h. In kind it is functional, organism-based.
The next data set concerns L6. Put plainly: Cytotoxicity against rat L6 cells after 72 hrs by alamar blue assay. Format: cell-based. Conditions: L6, 72 h.
In data set [11] the test system is Trypanosoma brucei rhodesiense. Put plainly: Antiparasitic activity against bloodstream forms of Trypanosoma brucei rhodesiense STIB 900 assessed as inhibition of growth after 72 hrs by resazurin assay. In kind it is functional, organism-based. The following applies: STIB 900, 72 h.
Data set [12] is described as follows: Selectivity ratio of IC50 for trypomastigote forms of Trypanosoma cruzi Tulahuen C2C4 infected in rat L6 cells to IC50 for bloodstream forms of Trypanosoma brucei rhodesiense STIB 900. Format: functional.
In a further data set the test system is Leishmania donovani. Put plainly: Antiparasitic activity against axenic amastigote forms of Leishmania donovani MHOM/ET/67/L82 assessed as inhibition of growth after 72 hrs by resazurin assay. In kind it is functional, organism-based. Conditions: MHOM/ET/67/L82, 72 h.

The structures appear in SMILES notation. A value given as a limit tells only on which side of the number the result lay.

The term IC50 denotes the point on the concentration scale where inhibition reaches its midpoint. Usually Kd stands for a measure of binding affinity in units of concentration.

Take `O=[N+]([O-])c1ncn(CCCNS(=O)(=O)c2ccc(Cl)s2)n1`: the “Ratio IC50” value is given as 3.6 in the data set on Trypanosoma cruzi [1] and 18.9 in [3]. Moreover, the half-inhibitory concentration (IC50) with Trypanosoma cruzi [2] worked out at 0.438 µM. The same compound came in with a Kd in data set [4] of 65.2 µM. Moreover, the selectivity ratio in data set [5] stood at 122; in [6], 556; in [7] it was 7.
Turning to `O=C(NCCCn1cnc([N+](=O)[O-])n1)c1ccnc(Cl)c1`, the entries for the “Ratio IC50” value (with Trypanosoma cruzi [1]; in [3]; in [12]) were 0.17, 1.2 and 6, respectively. For the same compound, the IC50 is 5.66 µM in data set [8]; 13.5 µM in the data set on Trypanosoma cruzi [2]; greater than 7.99 µM in data set [9]; 6.99 µM in data set [10]; greater than 322 µM in the data set with L6; 2.25 µM in [11]. Also, in the data set with Leishmania donovani, the IC50 turned out to be 82.4 µM. Also, the selectivity ratio in data set [5] is greater than 143; in data set [6], greater than 24; in data set [7] it was greater than 4.

The values above are taken from ChEMBL document CHEMBL3351635, “Novel nitro(triazole/imidazole)-based heteroarylamides/sulfonamides as potential antitrypanosomal agents” (Eur J Med Chem, 2014).
